Experimental data as given in patent US20240252488A1 (KOREA RESEARCH INSTITUTE OF CHEMICAL TECHNOLOGY, priority 2020, published 2024).

Columns and labels:
MLKL [1] = target: T1, MLKL (Homo sapiens, UniProt Q8NB16); assay: MLKL degradation assay in HepG2 cell line (western blot); type: cell-based; set-up: endogenous in cells; host or cells: HepG2 or HaCaT; settings: cell line not given; for Degradation assay (Degradation %) 10 μM: compound 10 μM; for Degradation assay (Degradation %) 1 μM: compound 1 μM
T1 sequence (Q8NB16 1-471): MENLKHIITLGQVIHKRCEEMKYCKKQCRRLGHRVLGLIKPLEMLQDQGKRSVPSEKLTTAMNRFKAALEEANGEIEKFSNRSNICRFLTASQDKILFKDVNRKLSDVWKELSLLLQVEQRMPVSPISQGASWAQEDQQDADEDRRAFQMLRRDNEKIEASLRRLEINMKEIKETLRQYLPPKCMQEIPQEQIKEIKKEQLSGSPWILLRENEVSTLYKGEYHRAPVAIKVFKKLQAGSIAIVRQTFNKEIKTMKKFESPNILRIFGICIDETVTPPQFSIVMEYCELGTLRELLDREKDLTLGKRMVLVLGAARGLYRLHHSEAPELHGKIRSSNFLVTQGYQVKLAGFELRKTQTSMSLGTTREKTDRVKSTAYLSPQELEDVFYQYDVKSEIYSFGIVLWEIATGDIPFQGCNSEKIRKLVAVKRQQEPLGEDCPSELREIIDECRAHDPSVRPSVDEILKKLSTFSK
Protocol: MLKL degradation ability was evaluated in the following method.
1 mL of Human liver cancer cell line (HepG2 cell line) or human skin cell line (HaCaT cell line) was equally distributed into each well at 2.0×10^5 cells/mL in a 12-well cell culture plate. On the next day, the medium was replaced with a medium made so that the final concentration of test compound was 1 or 10 μM (1 mL/well), and incubated in 5% CO2, at 37° C. for 20-24 hours (Thermo scientific, Forma steri-cycle).
For protein preparation after incubation, cells were washed with 1×TBST, and 60 μL of RIPA lysis buffer containing Halt™ Protease and Phosphatase Inhibitor Cocktail was dispensed into each well. After scraping the cells with a scraper, the cells were recovered, and the pallet was homogenized and reacted on ice for 30 minutes. After the cells were centrifuged at 13,000 rpm, 10 minutes, 4° C., the supernatant was transferred to a new E-tube. For protein quantification, after dispensing sample and BCA (0-4 mg/ml) in a 96 well plate, 100 μL of BCA was dispensed and reacted in a 37° C. incubator for 30 minutes. After measuring the absorbance (SpectraMax, M5e, 562 nm), the amount of the sample was adjusted with the same concentration of protein and 4× Laemmli sample buffer, DW, and reacted at 100° C. for 5 minutes.
After assembling the MP TGX Precast Gel in the Mini-PROTEAN Tetra Cell, the same protein (10-15 μg) was added in an 8-10 μL volume per well, 1×Tris-Glycine Buffer was added, and loading was performed. After loading was completed, transfer was performed using Pierce G2 Fast Blotter and Pierce 1-Step Transfer Buffer. After completion of the transfer, 10 ml of SuperBlock™ Blocking Buffer was dispensed and reacted at room temperature for 10 minutes. 5% BSA containing the primary antibody was dispensed and reacted over night at 4° C. The next day, washing was performed three times with 1×TBST at room temperature for 10 minutes. 5% BSA containing the secondary antibody was dispensed and reacted at room temperature for 1 hour. Washing was performed three times with 1×TBST at room temperature for 10 minutes. The amount of protein expression was measured using chemiluminescence (LuminoGraph, ATTO).

FADD−/− Jurkat cells = assay: Necroptosis inhibition assay, TNF-α-induced necroptosis (CellTiter-Glo 2.0); type: cell-based, human; settings: TNF-α 15 ng/mL; for Necroptosis inhibition assay (Rescue %) 1 μM: compound 1 μM; for Necroptosis inhibition assay (Rescue %) 10 μM: compound 10 μM
Summary of the method: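 Compound is added to cells at final concentrations of 0.1, 1 and 10 μM and left 30 minutes at room temperature. Necroptosis is induced with 15 ng/mL TNF-α, culture continues 20 to 24 hours at 37° C, and ATP-based luminescence reports viability.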

MLKL [2] = target: T1, MLKL; assay: Measurement of binding affinity with MLKL receptor (competitive binding assay, Kd); set-up: made in house; host or cells: HEK 293 cell line (T7 phage in E. coli BL21-derived host is also described)
Summary of the method: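 qPCR of MLKL eluted from liganded beads served as the read-out, from which Kd was derived. The protein was made in HEK 293 cells with a DNA tag, and test compounds competed with the bead-bound ligand at 0.9% final DMSO.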

| Compound | Degradation assay (Degradation %) 10 μM (MLKL [1]) [%] | Kd (MLKL [2]) [nM] | Degradation assay (Degradation %) 1 μM (MLKL [1]) [%] | Necroptosis inhibition assay (Rescue %) 1 μM (FADD−/− Jurkat cells) [%] | Necroptosis inhibition assay (Rescue %) 10 μM (FADD−/− Jurkat cells) [%] | Necroptosis inhibition assay (Rescue %) 1 μM (FADD−/− Jurkat cells; FADD−/− Jurkat cells) [%] | Necroptosis inhibition assay (Rescue %) 10 μM (FADD−/− Jurkat cells; FADD−/− Jurkat cells) [%] |
| --- | --- | --- | --- | --- | --- | --- | --- |
| Nc1ncc(-c2cnn([C@@H]3CCN(CCOCCOCCNC(=O)COc4cccc5c4C(=O)N(C4CCC(=O)NC4=O)C5=O)C3)c2)nc1C(=O)OC(C(=O)Nc1ccc(F)cc1)c1ccccc1 (stereo partly drawn) [TDH-269, 2-((4-fluorophenyl)amino)-2-oxo-1-phenylethyl 3-amino-6-(1-((3R)-1-(2-(2-(2-(2-((2-(2,6-dioxopiperidin-3-yl)-1,3-dioxoisoindolin-4-yl)oxy)acetamido)ethoxy)ethoxy)ethyl)pyrrolidin-3-yl)-1H-pyrazol-4-yl)pyrazine-2-carboxylate] | 12.14 | 5.4 |  | 35.71 | 81.5 |  |  |
| Nc1ncc(-c2cnn(C3CCN(C(=O)COCCOCCNc4cccc5c4C(=O)N(C4CCC(=O)NC4=O)C5=O)CC3)c2)nc1C(=O)O[C@@H](C(=O)Nc1ccc(F)cc1)c1ccccc1 (stereo partly drawn) [TDH-104, (R)-2-((4-fluorophenyl)amino)-2-oxo-1-phenylethyl 3-amino-6-(1-(1-(2-(2-(2-((2-(2,6-dioxopiperidin-3-yl)-1,3-dioxoisoindolin-4-yl)amino)ethoxy)ethoxy)acetyl)piperidin-4-yl)-1H-pyrazol-4-yl)pyrazine-2-carboxylate] | 62.43 | 48 | 14.79 | 25.6 | 22.88 |  |  |
| Nc1ncc(-c2cnn(C3CCN(C(=O)CCCCCNC(=O)CNc4cccc5c4C(=O)N(C4CCC(=O)NC4=O)C5=O)CC3)c2)nc1C(=O)O[C@@H](C(=O)Nc1ccc(F)cc1)c1ccccc1 (stereo partly drawn) [TDH-124, (R)-2-((4-fluorophenyl)amino)-2-oxo-1-phenylethyl 3-amino-6-(1-(1-(6-(2-((2-(2,6-dioxopiperidin-3-yl)-1,3-dioxoisoindolin-4-yl)amino)acetamido)hexanoyl)piperidin-4-yl)-1H-pyrazol-4-yl)pyrazine-2-carboxylate] | 8.02 | 12 |  | 21.88 | 27.22 |  |  |
| Nc1ncc(-c2cnn(C3CCN(CCOCCOCCOCCNC(=O)CNc4ccc5nnn(C6CCC(=O)NC6=O)c(=O)c5c4)CC3)c2)nc1C(=O)O[C@@H](C(=O)Nc1ccc(F)cc1)c1ccccc1 (stereo partly drawn) [TDH-175, (R)-2-((4-fluorophenyl)amino)-2-oxo-1-phenylethyl 3-amino-6-(1-(1-(1-((3-(2,6-dioxopiperidin-3-yl)-4-oxo-3,4-dihydrobenzo[d][1,2,3]triazin-6-yl)amino)-2-oxo-6,9,12-trioxa-3-azatetradecan-14-yl)piperidin-4-yl)-1H-pyrazol-4-yl)pyrazine-2-carboxylate] | 43.56 | 7.3 | 48.93 | 18.82 | 35.89 |  |  |
| Nc1ncc(-c2cnn(C3CCN(CCOCCOCCNC(=O)C4CCN(c5cccc6c5C(=O)N(C5CCC(=O)NC5=O)C6=O)CC4)CC3)c2)nc1C(=O)N[C@@H](C(=O)Nc1ccc(F)cc1)c1ccccc1 (stereo partly drawn) [TDH-213, 3-amino-6-(1-(1-(2-(2-(2-(1-(2-(2,6-dioxopiperidin-3-yl)-1,3-dioxoisoindolin-4-yl)piperidine-4-carboxamido)ethoxy)ethoxy)ethyl)piperidin-4-yl)-1H-pyrazol-4-yl)-N-((R)-2-((4-fluorophenyl)amino)-2-oxo-1-phenylethyl)pyrazine-2-carboxamide] | 8.28 | 330 | 4.45 | 18.34 | 44.98 |  |  |

Now from value to molecule, other results behind:

| Degradation assay (Degradation %) 10 μM (MLKL [1]) [%] | Kd (MLKL [2]) [nM] | Degradation assay (Degradation %) 1 μM (MLKL [1]) [%] | Compound | Necroptosis inhibition assay (Rescue %) 1 μM (FADD−/− Jurkat cells) [%] | Necroptosis inhibition assay (Rescue %) 10 μM (FADD−/− Jurkat cells) [%] | Necroptosis inhibition assay (Rescue %) 1 μM (FADD−/− Jurkat cells; FADD−/− Jurkat cells) [%] | Necroptosis inhibition assay (Rescue %) 10 μM (FADD−/− Jurkat cells; FADD−/− Jurkat cells) [%] |
| --- | --- | --- | --- | --- | --- | --- | --- |
| 10.1 | 5.7 | 45.01 | Nc1ncc(-c2cnn([C@H]3CCN(CC4CCN(C(=O)CNc5cccc6c5C(=O)N(C5CCC(=O)NC5=O)C6=O)CC4)C3)c2)nc1C(=O)OC(C(=O)Nc1ccc(F)cc1)c1ccccc1 (stereo partly drawn) [TDH-281, 2-((4-fluorophenyl)amino)-2-oxo-1-phenylethyl 3-amino-6-(1-((3S)-1-((1-((2-(2,6-dioxopiperidin-3-yl)-1,3-dioxoisoindolin-4-yl)glycyl)piperidin-4-yl)methyl)pyrrolidin-3-yl)-1H-pyrazol-4-yl)pyrazine-2-carboxylate] | 29.65 | 26.95 |  |  |
| 78.83 | 9.8 | 45.8 | Nc1ncc(-c2cnn(C3CN(CC4CCN(C(=O)COc5cccc6c5C(=O)N(C5CCC(=O)NC5=O)C6=O)CC4)C3)c2)nc1C(=O)OC(C(=O)Nc1ccc(F)cc1)c1ccccc1 (stereo not shown) [TDH-298, 2-((4-fluorophenyl)amino)-2-oxo-1-phenylethyl 3-amino-6-(1-(1-((1-(2-((2-(2,6-dioxopiperidin-3-yl)-1,3-dioxoisoindolin-4-yl)oxy)acetyl)piperidin-4-yl)methyl)azetidin-3-yl)-1H-pyrazol-4-yl)pyrazine-2-carboxylate] | 41.64 | 66.6 |  |  |
| 94 | 1.1 | 73.33 | Nc1ncc(-c2cnn(C3CCN(CCCN4CCN(C(=O)CC5CCN(c6ccc7c(c6)C(=O)N(C6CCC(=O)NC6=O)C7=O)CC5)CC4)CC3)c2)nc1C(=O)O[C@@H](C(=O)Nc1ccc(F)cc1)c1ccccc1 (stereo partly drawn) [TDH-369, (R)-2-((4-fluorophenyl)amino)-2-oxo-1-phenylethyl 3-amino-6-(1-(1-(3-(4-(2-(1-(2-(2,6-dioxopiperidin-3-yl)-1,3-dioxoisoindolin-5-yl)piperidin-4-yl)acetyl)piperazin-1-yl)propyl)piperidin-4-yl)-1H-pyrazol-4-yl)pyrazine-2-carboxylate] | 48.04 | 22.49 |  |  |
| 76.78 | 1 | 86.88 | Nc1ncc(-c2cnn(C3CCN(C(=O)CCC4CCN(C(=O)CCc5cccc6c5C(=O)N(C5CCC(=O)NC5=O)C6=O)CC4)CC3)c2)nc1C(=O)O[C@@H](C(=O)Nc1ccc(F)cc1)c1ccccc1 (stereo partly drawn) [TDH-431, (R)-2-((4-fluorophenyl)amino)-2-oxo-1-phenylethyl 3-amino-6-(1-(1-(3-(1-(3-(2-(2,6-dioxopiperidin-3-yl)-1,3-dioxoisoindolin-4-yl)propanoyl)piperidin-4-yl)propanoyl)piperidin-4-yl)-1H-pyrazol-4-yl)pyrazine-2-carboxylate] |  |  | 37.24 | 17.64 |
